Reference: PMC3532034 (The Journal of neuroscience : the official journal of the …, 2012)

Biological target: LRRK2 (leucine-rich repeat kinase 2) (Homo sapiens, UniProt Q5S007)
Assay: in vitro radiometric kinase assay with recombinant purified LRRK2
Assay type: biochemical

LRRK2 (leucine-rich repeat kinase 2), sequence (Q5S007 970-2527 limits assumed): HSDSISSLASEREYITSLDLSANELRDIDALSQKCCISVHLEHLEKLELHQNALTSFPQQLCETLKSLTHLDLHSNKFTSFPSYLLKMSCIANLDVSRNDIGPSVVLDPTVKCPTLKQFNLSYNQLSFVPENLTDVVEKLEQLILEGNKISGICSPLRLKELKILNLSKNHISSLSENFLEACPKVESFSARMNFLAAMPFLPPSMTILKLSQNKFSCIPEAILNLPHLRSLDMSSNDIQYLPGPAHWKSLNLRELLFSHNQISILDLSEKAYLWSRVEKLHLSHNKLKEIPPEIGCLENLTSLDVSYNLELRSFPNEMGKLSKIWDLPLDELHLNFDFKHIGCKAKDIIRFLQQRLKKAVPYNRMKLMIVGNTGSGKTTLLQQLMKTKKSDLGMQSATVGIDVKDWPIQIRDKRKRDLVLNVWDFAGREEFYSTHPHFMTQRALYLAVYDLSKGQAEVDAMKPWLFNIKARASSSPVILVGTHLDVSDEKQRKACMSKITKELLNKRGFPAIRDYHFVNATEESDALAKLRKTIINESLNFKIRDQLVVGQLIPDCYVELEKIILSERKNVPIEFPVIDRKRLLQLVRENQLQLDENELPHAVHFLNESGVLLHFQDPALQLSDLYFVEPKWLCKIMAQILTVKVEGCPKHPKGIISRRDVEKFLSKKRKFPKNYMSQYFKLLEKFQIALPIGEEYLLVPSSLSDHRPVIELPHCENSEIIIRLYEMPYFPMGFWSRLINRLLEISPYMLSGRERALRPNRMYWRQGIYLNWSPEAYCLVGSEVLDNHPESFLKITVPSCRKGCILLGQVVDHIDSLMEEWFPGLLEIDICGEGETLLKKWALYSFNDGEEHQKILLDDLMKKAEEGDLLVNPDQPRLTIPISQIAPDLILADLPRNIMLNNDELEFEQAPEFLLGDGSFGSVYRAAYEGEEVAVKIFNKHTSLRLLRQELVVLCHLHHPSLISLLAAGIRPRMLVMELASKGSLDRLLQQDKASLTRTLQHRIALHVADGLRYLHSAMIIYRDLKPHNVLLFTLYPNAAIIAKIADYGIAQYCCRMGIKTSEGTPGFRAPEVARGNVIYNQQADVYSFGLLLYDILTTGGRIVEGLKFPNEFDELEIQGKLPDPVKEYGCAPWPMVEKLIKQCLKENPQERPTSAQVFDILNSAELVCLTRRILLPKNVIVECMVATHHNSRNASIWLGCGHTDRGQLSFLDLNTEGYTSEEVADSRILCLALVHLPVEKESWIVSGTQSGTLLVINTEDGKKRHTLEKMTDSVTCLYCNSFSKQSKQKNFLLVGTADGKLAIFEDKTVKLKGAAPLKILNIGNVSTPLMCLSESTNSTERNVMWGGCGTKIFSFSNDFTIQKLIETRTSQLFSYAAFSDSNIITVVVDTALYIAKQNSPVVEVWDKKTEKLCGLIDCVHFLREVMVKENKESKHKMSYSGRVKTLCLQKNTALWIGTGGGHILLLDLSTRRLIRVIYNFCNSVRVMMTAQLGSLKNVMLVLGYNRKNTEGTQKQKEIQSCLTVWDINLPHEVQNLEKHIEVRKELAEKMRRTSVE

COc1cc(C(=O)N2CCC(N3CCN(C)CC3)CC2)ccc1Nc1ncc2c(n1)N(C)c1ccccc1C(=O)N2C [L2in1]
IC50: 40.3 nM
